Results on five compounds are retold here after ChEMBL document CHEMBL1955784, “Novel 5-substituted 1H-tetrazoles as cyclooxygenase-2 (COX-2) inhibitors” (Bioorg Med Chem Lett, 2012).

For assay [1], the target named is T1, Prostaglandin G/H synthase 1 (Ovis aries, UniProt P05979).
T1 sequence (P05979 whole entry): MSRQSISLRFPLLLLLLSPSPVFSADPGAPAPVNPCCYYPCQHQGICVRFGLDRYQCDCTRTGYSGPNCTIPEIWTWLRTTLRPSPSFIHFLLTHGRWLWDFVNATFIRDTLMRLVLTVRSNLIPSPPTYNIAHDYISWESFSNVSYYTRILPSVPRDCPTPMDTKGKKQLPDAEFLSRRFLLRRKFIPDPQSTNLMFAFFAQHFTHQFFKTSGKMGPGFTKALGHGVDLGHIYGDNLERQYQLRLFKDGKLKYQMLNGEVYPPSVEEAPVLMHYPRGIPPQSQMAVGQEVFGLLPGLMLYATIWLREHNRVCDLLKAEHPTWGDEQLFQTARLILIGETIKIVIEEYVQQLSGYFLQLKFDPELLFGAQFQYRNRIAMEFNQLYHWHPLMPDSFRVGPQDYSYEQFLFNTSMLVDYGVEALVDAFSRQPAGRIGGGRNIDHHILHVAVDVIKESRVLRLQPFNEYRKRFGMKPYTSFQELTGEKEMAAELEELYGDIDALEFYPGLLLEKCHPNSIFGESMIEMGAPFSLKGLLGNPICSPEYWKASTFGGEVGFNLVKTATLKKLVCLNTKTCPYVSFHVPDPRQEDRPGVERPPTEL
The assay is described as follows: Competitive inhibition of ovine COX1 by enzyme immunoassay.

The target of assay [2] is T2, Prostaglandin G/H synthase 2 (Homo sapiens, UniProt P35354).
T2 sequence (P35354 whole entry): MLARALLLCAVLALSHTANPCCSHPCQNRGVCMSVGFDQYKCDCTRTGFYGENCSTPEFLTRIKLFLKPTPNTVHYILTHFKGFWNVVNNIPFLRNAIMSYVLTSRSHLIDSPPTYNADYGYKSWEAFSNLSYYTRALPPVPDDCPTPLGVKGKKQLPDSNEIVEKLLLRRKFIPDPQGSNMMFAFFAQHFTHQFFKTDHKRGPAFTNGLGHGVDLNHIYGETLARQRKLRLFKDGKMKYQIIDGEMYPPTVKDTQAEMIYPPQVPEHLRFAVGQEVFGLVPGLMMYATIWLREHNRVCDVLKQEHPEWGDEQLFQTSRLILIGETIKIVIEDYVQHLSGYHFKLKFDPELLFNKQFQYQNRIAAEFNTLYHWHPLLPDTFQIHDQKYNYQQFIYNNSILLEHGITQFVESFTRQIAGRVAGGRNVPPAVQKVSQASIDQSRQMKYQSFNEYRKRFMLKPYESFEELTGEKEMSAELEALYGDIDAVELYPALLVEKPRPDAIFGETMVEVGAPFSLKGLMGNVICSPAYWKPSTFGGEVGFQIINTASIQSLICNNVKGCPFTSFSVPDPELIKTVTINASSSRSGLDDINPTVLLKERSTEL
The assay can be described thus: Competitive inhibition of human recombinant COX2 by enzyme immunoassay.

In general, IC50 refers to the midpoint of a concentration-inhibition curve. In the case of `CS(=O)(=O)c1ccc(-n2nnnc2-c2ccc([N+](=O)[O-])cc2)cc1`, the figures for the half-inhibitory concentration (IC50) in assay [1] and in assay [2] were more than 100 µM and 69 µM, respectively.

On to `Cc1ccc(-c2nnnn2-c2ccc(S(N)(=O)=O)cc2)cc1`, for which the IC50 in assay [1] and in assay [2] was more than 100 µM in each case.

`CS(=O)(=O)c1ccc(-n2nnnc2-c2ccc(Cl)cc2)cc1`: the IC50 was more than 100 µM in assay [1] and 32 µM in assay [2].

Turning to `NS(=O)(=O)c1ccc(-n2nnnc2-c2ccc(Cl)cc2)cc1`, the IC50 in assay [1] was more than 100 µM; in assay [2], 62 µM.

`CS(=O)(=O)c1ccc(-n2nnnc2-c2ccc(F)cc2)cc1`: the half-inhibitory concentration (IC50) in assay [1] is more than 100 µM; in assay [2], 15 µM.
